35 molecules from ChEMBL document CHEMBL1131996, “Design, combinatorial chemical synthesis and in vitro characterization of novel urea based gelatinase inhibitors” (Bioorg Med Chem Lett, 1999) can be followed below.

SMILES strings stand for the structures. pIC50: −log10 of the molar value. Values joined by “and” are separate entries in the source; they are usually repeats but may differ in a detail not shown here. Equal values may be shown once.

A word on the pIC50: it is the IC50 on a negative log10 scale, so that one unit is a factor of ten. A low value points to a high IC50.

The target in this experiment is 72 kDa type IV collagenase (Homo sapiens, UniProt P08253). In words: Inhibitory activity against matrix metalloprotease-2 (MMP-2).
Sequence of 72 kDa type IV collagenase (P08253 whole entry): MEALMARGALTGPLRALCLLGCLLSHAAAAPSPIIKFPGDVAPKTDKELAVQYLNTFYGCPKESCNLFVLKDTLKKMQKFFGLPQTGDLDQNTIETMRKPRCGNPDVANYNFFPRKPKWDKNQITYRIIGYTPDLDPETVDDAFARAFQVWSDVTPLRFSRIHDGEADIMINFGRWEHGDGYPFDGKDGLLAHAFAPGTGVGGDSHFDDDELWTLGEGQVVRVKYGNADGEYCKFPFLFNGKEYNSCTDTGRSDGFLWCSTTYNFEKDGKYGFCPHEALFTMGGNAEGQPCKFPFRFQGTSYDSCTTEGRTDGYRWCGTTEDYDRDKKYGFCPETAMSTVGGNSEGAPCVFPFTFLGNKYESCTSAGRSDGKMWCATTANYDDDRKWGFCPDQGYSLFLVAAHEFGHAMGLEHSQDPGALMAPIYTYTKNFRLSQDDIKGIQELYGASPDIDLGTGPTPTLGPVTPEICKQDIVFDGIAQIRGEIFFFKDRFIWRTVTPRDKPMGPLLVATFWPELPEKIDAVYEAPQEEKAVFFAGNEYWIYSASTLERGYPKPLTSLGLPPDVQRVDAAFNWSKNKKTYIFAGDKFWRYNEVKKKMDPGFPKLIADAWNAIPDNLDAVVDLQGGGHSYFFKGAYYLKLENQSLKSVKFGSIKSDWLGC
As to `O=C(CN(C(=O)CN(CCCc1ccccc1)C(=O)Nc1ccc(Oc2ccccc2)cc1)C1CCCc2ccccc21)NO` (stereo not given), the pIC50 is less than 3.30.

As for `O=C(CN(CCCc1ccccc1)C(=O)CN(Cc1ccccc1)C(=O)Nc1ccc(Oc2ccccc2)cc1)NO`, the pIC50 was 4.37.

Take `O=C(CN(CCCCc1ccccc1)C(=O)CN(CCCCc1ccccc1)C(=O)Nc1ccc(Oc2ccccc2)cc1)NO`: the pIC50 was 4.28.

In the case of `O=C(CN(CCc1ccc(F)cc1)C(=O)CN(CCCc1ccccc1)C(=O)Nc1ccc(Oc2ccccc2)cc1)NO`, the pIC50 is 4.40.

In the case of `O=C(CN(C(=O)CN(CCCc1ccccc1)C(=O)Nc1ccc(Oc2ccccc2)cc1)C(c1ccccc1)c1ccccc1)NO`, the pIC50 is 3.70.

`CCCCCCCN(CC(=O)N(CCc1ccc(F)cc1)CC(=O)NO)C(=O)Nc1ccc(Oc2ccccc2)cc1` gave a pIC50 of 3.94.

For the molecule `O=C(CN(CCCc1ccccc1)C(=O)CN(CCCc1ccccc1)C(=O)Nc1ccc(Oc2ccccc2)cc1)NO`, the pIC50 is 5.70.

`CCCCCCCN(CC(=O)NO)C(=O)CN(CCCc1ccccc1)C(=O)Nc1ccc(Oc2ccccc2)cc1`: the pIC50 was 3.82.

The molecule `CCCCCN(CC(=O)NO)C(=O)CN(CCCc1ccccc1)C(=O)Nc1ccc(Oc2ccccc2)cc1` had a pIC50 of 4.00. The pIC50 values of the last two molecules are within 0.2 log units of each other.

On to `CCCCN(CC(=O)NO)C(=O)CN(CCCc1ccccc1)C(=O)Nc1ccc(Oc2ccccc2)cc1`, for which the pIC50 was 3.64.

Take `CC(C)(C)N(CC(=O)N(CC(=O)NO)CC1CCCCC1)C(=O)Nc1ccc(Oc2ccccc2)cc1`: the pIC50 is 3.82. This pIC50 and that of the molecule before are within 0.2 log units of each other.

As for `O=C(CN(Cc1ccccc1)C(=O)CN(CC1CCCCC1)C(=O)Nc1ccc(Oc2ccccc2)cc1)NO`, the pIC50 was 3.90.

Consider `CCCCN(CC(=O)N(CC(=O)NO)C(C)CC)C(=O)Nc1ccc(Oc2ccccc2)cc1` (stereo not given), for which the pIC50 was 4.27.

`O=C(CN(Cc1ccccc1)C(=O)CN(CCCc1ccccc1)C(=O)Nc1ccc(Oc2ccccc2)cc1)NO`: the pIC50 is 6.52.

The molecule `CCC(C)N(CC(=O)NO)C(=O)CN(CCCc1ccccc1)C(=O)Nc1ccc(Oc2ccccc2)cc1` (stereo not given) showed a pIC50 of 3.43.

As for `CCCCCN(CC(=O)NO)C(=O)CN(C(=O)Nc1ccc(Oc2ccccc2)cc1)C(C)CCC` (stereo not given), the pIC50 was 3.80. This pIC50 is 0.37 log units higher than that of the molecule before.

With `CC(C)N(CC(=O)N(CC(=O)NO)C(C)(C)C)C(=O)Nc1ccc(Oc2ccccc2)cc1`, the pIC50 is 3.81.

As to `CCCCCCCN(CC(=O)NO)C(=O)CN(CCCCC)C(=O)Nc1ccc(Oc2ccccc2)cc1`, the negative logarithm of the IC50 (pIC50) was 4.22.

As for `CCC(C)N(CC(=O)N(CC(=O)NO)C(C)C)C(=O)Nc1ccc(Oc2ccccc2)cc1` (stereo not given), the pIC50 is 4.14.

Take `CC(C)N(CC(=O)NO)C(=O)CN(CCc1ccc(F)cc1)C(=O)Nc1ccc(Oc2ccccc2)cc1`: the pIC50 is 4.05.

Regarding `CCC(C)N(CC(=O)NO)C(=O)CN(Cc1ccccc1)C(=O)Nc1cccc2ccccc12` (stereo not given), the pIC50 was 3.96.

`CCCCN(CC(=O)NO)C(=O)CN(CCc1ccc(F)cc1)C(=O)Nc1ccc(Oc2ccccc2)cc1` gave a pIC50 of 4.29.

`CC(C)(C)N(CC(=O)NO)C(=O)CN(CCCc1ccccc1)C(=O)Nc1ccc(Oc2ccccc2)cc1` gave a pIC50 of less than 3.30.

On to `CCCCCN(CC(=O)NO)C(=O)CN(CCCCc1ccccc1)C(=O)Nc1cc(Cl)ccc1OC`, for which the negative-log IC50 (pIC50) is less than 3.30.

Consider `O=C(CN(CC1CCCCC1)C(=O)CN(CCCc1ccccc1)C(=O)Nc1ccc(Oc2ccccc2)cc1)NO`, for which the pIC50 was less than 3.30.

`CCCCN(CC(=O)NO)C(=O)CN(CC1CCCCC1)C(=O)Nc1ccc([N+](=O)[O-])cc1C` had a pIC50 of less than 3.30.

Take `CCCCCCCN(CC(=O)NO)C(=O)CN(C(=O)Nc1ccc(OCCCC)cc1)C(c1ccccc1)c1ccccc1`: the pIC50 was less than 3.30.

In turn, `CSc1ccccc1NC(=O)N(CCCc1ccccc1)CC(=O)N(CC(=O)NO)C(C)(C)C` had a pIC50 of 3.82.

As for `O=C(CN(C(=O)CN(C(=O)Nc1ccc(Oc2ccccc2)cc1)C1CCCc2ccccc21)C1CCCc2ccccc21)NO` (stereo not given), the negative logarithm of the IC50 (pIC50) is 4.22.

On to `O=C(CN(C(=O)CN(C(=O)Nc1ccc(Oc2ccccc2)cc1)C(c1ccccc1)c1ccccc1)C(c1ccccc1)c1ccccc1)NO`, for which the pIC50 was 4.30.

As for `O=C(CN(CCCCc1ccccc1)C(=O)CN(CCCc1ccccc1)C(=O)Nc1ccc(Oc2ccccc2)cc1)NO`, the pIC50 was 6.05 and 6.52.

`CC(C)N(CC(=O)NO)C(=O)CN(CCCc1ccccc1)C(=O)Nc1ccc(Oc2ccccc2)cc1` had a pIC50 of less than 3.30.

As for `CCCC(C)N(CC(=O)NO)C(=O)CN(C(=O)Nc1ccc2ccccc2c1)C1CCCc2ccccc21` (stereo not given), the pIC50 was 3.92.

As for `CCCC(C)N(CC(=O)NO)C(=O)CN(CCCc1ccccc1)C(=O)Nc1ccc(Oc2ccccc2)cc1` (stereo in doubt; form 1), the pIC50 is 4.64. This pIC50 is 0.72 log units higher than that of the molecule before.

`CCCC(C)N(CC(=O)NO)C(=O)CN(CCCc1ccccc1)C(=O)Nc1ccc(Oc2ccccc2)cc1` (stereo in doubt; form 2) gave a pIC50 of 4.00.
